Test results as given in ChEMBL document CHEMBL1133973, “Asymmetric synthesis of BB-3497--a potent peptide deformylase inhibitor” (Bioorg Med Chem Lett, 2001).

What was measured:
Stromelysin-1 = Stromelysin-1 (Homo sapiens, UniProt P08254); test: Inhibition of Matrix metalloprotease-3
[1] = biological target: 72 kDa type IV collagenase (Homo sapiens, UniProt P08253); test: Inhibition of Matrix metalloprotease-2
Matrilysin = biological target: T1, Matrilysin (Homo sapiens, UniProt P09237); test: (§1) Inhibition of Matrix metalloprotease-7
T1 sequence (P09237 whole entry): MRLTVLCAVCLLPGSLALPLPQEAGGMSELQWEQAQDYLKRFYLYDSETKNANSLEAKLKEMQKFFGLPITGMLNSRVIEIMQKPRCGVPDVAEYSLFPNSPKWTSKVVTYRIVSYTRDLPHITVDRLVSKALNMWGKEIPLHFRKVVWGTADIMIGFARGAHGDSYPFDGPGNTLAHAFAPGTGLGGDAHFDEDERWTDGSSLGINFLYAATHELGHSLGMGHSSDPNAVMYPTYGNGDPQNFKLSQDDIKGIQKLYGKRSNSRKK

Interstitial collagenase = biological target: T2, Interstitial collagenase (Homo sapiens, UniProt P03956); test: Inhibition of human Matrix metalloprotease-1
T2 sequence (P03956 whole entry): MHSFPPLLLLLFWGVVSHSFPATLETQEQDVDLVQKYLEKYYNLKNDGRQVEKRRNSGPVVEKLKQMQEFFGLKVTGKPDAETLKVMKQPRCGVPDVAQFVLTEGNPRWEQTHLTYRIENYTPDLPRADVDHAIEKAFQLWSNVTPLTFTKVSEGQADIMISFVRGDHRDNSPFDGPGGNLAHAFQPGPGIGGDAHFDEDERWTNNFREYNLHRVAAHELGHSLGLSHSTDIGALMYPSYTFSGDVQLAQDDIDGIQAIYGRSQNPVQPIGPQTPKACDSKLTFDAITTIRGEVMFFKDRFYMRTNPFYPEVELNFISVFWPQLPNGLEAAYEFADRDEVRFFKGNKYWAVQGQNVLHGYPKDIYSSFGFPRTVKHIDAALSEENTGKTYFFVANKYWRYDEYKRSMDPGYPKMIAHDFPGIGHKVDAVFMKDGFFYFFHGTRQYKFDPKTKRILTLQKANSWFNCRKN

[2] = biological target: Angiotensin-converting enzyme (Homo sapiens, UniProt P12821); test: Compound was tested for its inhibitory activity against Angiotensin I converting enzyme
[3] = biological target: T3, Matrilysin (Homo sapiens) (UniProt P09237); test: as §1; details: concentration not given here
T3 sequence (whole entry): T1 sequence (P09237 whole entry)

Neprilysin = Neprilysin (Homo sapiens, UniProt P08473); test: The compound was evaluated in vitro for the inhibition of Neutral endopeptidase
Sequence of Neprilysin (P08473 whole entry): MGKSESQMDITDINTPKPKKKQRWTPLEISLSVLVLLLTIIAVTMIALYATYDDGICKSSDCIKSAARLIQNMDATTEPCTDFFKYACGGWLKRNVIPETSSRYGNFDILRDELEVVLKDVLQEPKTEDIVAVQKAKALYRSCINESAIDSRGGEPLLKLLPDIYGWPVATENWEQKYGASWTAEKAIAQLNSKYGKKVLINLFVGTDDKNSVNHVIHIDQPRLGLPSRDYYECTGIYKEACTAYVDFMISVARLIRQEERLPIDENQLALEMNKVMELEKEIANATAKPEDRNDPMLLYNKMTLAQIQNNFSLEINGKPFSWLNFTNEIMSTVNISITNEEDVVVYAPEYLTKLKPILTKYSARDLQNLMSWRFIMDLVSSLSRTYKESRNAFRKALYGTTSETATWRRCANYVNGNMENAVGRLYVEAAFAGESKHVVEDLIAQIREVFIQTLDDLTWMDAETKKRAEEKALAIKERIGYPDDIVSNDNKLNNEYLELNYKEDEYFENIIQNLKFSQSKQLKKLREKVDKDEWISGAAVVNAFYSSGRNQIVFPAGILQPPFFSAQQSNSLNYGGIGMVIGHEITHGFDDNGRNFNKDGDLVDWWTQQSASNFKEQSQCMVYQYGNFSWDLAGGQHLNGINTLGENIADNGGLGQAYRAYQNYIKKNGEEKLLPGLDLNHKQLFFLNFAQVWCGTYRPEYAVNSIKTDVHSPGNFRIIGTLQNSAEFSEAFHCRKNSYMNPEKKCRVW

Sequence of Stromelysin-1 (P08254 whole entry): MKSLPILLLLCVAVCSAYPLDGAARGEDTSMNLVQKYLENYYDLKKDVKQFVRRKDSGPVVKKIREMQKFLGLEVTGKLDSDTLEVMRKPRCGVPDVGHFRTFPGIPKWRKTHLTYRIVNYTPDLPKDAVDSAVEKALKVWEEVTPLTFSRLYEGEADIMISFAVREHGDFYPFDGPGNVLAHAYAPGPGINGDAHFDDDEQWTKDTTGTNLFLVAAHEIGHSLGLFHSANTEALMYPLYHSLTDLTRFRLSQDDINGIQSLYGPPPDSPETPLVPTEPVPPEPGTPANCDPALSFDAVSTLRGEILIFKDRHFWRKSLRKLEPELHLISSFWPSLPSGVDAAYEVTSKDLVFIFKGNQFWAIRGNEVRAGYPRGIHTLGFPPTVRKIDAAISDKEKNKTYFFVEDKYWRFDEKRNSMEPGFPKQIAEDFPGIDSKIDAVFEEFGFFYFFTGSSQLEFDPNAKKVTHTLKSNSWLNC
Sequence of 72 kDa type IV collagenase (P08253 whole entry): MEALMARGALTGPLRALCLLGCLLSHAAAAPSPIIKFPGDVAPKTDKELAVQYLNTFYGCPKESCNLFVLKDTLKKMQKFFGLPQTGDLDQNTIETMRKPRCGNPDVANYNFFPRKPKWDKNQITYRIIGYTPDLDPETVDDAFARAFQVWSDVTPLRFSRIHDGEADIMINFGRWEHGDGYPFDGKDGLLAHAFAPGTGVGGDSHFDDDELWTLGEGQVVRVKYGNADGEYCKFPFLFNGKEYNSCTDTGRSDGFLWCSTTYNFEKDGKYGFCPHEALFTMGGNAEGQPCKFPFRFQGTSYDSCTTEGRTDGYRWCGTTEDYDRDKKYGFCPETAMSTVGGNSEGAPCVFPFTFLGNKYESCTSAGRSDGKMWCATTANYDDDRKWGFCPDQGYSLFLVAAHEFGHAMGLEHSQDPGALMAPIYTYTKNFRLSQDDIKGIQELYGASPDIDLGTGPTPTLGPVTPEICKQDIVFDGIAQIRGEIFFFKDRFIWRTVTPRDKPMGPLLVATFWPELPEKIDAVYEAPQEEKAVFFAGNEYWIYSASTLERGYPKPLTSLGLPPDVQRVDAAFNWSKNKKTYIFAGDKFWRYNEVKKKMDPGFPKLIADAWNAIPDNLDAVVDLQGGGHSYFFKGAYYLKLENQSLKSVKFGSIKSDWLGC
Sequence of Angiotensin-converting enzyme (P12821 whole entry): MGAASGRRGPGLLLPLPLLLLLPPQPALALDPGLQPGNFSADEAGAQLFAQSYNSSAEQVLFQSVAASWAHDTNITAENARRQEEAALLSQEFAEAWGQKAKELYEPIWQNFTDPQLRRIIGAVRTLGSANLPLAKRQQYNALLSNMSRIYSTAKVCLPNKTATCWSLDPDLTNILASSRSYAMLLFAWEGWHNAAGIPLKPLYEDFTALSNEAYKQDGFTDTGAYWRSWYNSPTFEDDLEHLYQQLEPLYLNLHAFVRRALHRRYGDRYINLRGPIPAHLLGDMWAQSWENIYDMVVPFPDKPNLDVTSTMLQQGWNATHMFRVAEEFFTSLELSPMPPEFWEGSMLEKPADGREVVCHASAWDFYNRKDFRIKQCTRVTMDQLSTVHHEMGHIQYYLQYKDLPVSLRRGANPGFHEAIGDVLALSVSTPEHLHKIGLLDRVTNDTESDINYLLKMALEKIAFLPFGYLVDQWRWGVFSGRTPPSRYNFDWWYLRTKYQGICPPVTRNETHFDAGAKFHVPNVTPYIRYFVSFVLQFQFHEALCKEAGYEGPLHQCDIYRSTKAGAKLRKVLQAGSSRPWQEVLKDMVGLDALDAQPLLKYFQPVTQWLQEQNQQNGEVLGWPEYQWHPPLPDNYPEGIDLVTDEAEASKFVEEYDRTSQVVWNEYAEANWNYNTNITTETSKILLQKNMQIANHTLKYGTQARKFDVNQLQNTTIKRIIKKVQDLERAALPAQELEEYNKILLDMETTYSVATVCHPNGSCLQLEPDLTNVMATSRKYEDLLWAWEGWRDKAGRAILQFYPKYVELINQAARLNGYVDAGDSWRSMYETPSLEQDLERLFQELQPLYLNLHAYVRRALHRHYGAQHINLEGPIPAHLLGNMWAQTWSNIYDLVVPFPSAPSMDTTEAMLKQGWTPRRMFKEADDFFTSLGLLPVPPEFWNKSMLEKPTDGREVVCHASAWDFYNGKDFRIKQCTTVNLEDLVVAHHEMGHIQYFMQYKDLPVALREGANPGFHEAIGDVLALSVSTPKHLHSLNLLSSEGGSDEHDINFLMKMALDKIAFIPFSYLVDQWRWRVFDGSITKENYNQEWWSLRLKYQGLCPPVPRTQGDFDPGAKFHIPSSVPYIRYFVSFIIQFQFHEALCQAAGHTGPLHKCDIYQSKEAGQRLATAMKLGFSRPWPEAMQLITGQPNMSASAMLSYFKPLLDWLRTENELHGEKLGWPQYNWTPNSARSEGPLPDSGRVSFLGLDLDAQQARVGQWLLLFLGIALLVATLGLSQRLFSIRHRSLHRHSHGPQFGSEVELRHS

| SMILES | IC50 (Stromelysin-1) [µM] | IC50 [1] [µM] | IC50 (Matrilysin) [µM] | IC50 (Interstitial collagenase) [µM] | IC50 [2] [µM] | inhibition [3] [%] | IC50 (Neprilysin) [µM] |
| --- | --- | --- | --- | --- | --- | --- | --- |
| CCCCC(CN(O)C=O)C(=O)N[C@H](C(=O)N(C)C)C(C)(C)C (stereo partly specified) | > 100 | > 100 | > 100 | > 100 | – | – | – |
| CCCCC[C@H](CC(=O)NO)C(=O)N[C@H](C(=O)N1CCC[C@H]1CO)C(C)C [ACTINONIN] | 6 | 3 | – | 1.1 | > 100 | 60 | 6.7 |
| CCCC[C@H](CN(O)C=O)C(=O)N[C@H](C(=O)N(C)C)C(C)(C)C | > 100 | 15 | > 100 | 2 | > 100 | – | 50 |
